Values joined by “and” are separate entries in the source; they are usually repeats but may differ in a detail not shown here. Equal values may be shown once. Inconclusive results and toxic doses are left out. The calls were made as follows: active = survival T/C of 150% or more; inactive = T/C below 125% in these data.
Tested on: P388 leukemia ip, CD2F1 mice, survival T/C
Assay: NCI In Vivo Anticancer Drug Screen. Data for tumor model P388 Leukemia (intraperitoneal) in CD2F1 (CDF1) mice
Conditions: endpoint: median survival time, higher = longer survival
How it was run: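 Mice carrying the transplanted tumor received test compound or vehicle. Survival was recorded in each group, and the value is the treated-group measurement divided by that of the vehicle-treated control group.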

[1] = dose: 100.0 mg/kg/injection, schedule: Q04DX003 (ip), vehicle: saline with Tween-80
[2] = dose: 200.0 mg/kg/injection, schedule: Q04DX003 (ip), vehicle: saline with Tween-80
[3] = dose: 50.0 mg/kg/injection, schedule: Q01DX005 (ip), vehicle: saline
[4] = dose: 100.0 mg/kg/injection, schedule: Q01DX005 (ip), vehicle: saline
[5] = dose: 200.0 mg/kg/injection, schedule: Q01DX005 (ip), vehicle: saline
[6] = dose: 50.0 mg/kg/injection, schedule: Q01DX005 (ip), vehicle: Klucel (hydroxypropylcellulose) (HPC)
[7] = dose: 100.0 mg/kg/injection, schedule: Q01DX005 (ip), vehicle: Klucel (hydroxypropylcellulose) (HPC)
[8] = dose: 200.0 mg/kg/injection, schedule: Q01DX005 (ip), vehicle: Klucel (hydroxypropylcellulose) (HPC)
[9] = dose: 50.0 mg/kg/injection, schedule: Q04DX003 (ip), vehicle: saline with Tween-80
[10] = dose: 60.0 mg/kg/injection, schedule: Q01DX005 (ip), vehicle: saline with Tween-80
[11] = dose: 120.0 mg/kg/injection, schedule: Q01DX005 (ip), vehicle: saline with Tween-80
[12] = dose: 240.0 mg/kg/injection, schedule: Q01DX005 (ip), vehicle: saline with Tween-80
[13] = dose: 50.0 mg/kg/injection, schedule: Q01DX009 (ip), vehicle: saline
[14] = dose: 200.0 mg/kg/injection, schedule: Q01DX009 (ip), vehicle: saline
[15] = dose: 400.0 mg/kg/injection, schedule: Q04DX003 (ip), vehicle: saline with Tween-80
[16] = dose: 60.0 mg/kg/injection, schedule: Q01DX005 (ip), vehicle: Klucel (hydroxypropylcellulose) (HPC)
[17] = dose: 50.0 mg/kg/injection, schedule: Q01DX009 (ip), vehicle: Klucel (hydroxypropylcellulose) (HPC)
[18] = dose: 100.0 mg/kg/injection, schedule: Q01DX009 (ip), vehicle: Klucel (hydroxypropylcellulose) (HPC)
[19] = dose: 50.0 mg/kg/injection, schedule: Q01DX009 (ip), vehicle: saline with Tween-80
[20] = dose: 6.25 mg/kg/injection, schedule: Q01DX009 (ip), vehicle: saline with Tween-80
[21] = dose: 12.5 mg/kg/injection, schedule: Q01DX009 (ip), vehicle: saline with Tween-80
[22] = dose: 25.0 mg/kg/injection, schedule: Q01DX009 (ip), vehicle: saline with Tween-80
[23] = dose: 50.0 mg/kg/injection, schedule: Q01DX005 (ip), vehicle: saline with Tween-80
[24] = dose: 100.0 mg/kg/injection, schedule: Q01DX005 (ip), vehicle: saline with Tween-80
[25] = dose: 200.0 mg/kg/injection, schedule: Q01DX005 (ip), vehicle: saline with Tween-80

Measured: T/C

NCCNCC(O)CO (stereo not given)
inactive: dose: 50.0 mg/kg/injection, schedule: Q01DX005 (ip), vehicle: saline + Tween-80 + alcohol 102 % of control | dose: 100.0 mg/kg/injection, schedule: Q01DX005 (ip), vehicle: saline + Tween-80 + alcohol 102 % of control | dose: 200.0 mg/kg/injection, schedule: Q01DX005 (ip), vehicle: saline + Tween-80 + alcohol 99 % of control

COc1ccc(N=Nc2c(O)n(-c3ccc(Br)cc3)c(=S)n(-c3ccc(OC)cc3)c2=O)cc1
inactive: [1] 96 % of control | [2] 87 % of control

NC1CC(=O)N(Cc2ccccc2)C1=O (stereo not given)
inactive: [3] 97 % of control | [4] 91 % of control | [5] 93 % of control

COC(=O)[C@@H]1O[C@H]1c1ccccn1
inactive: dose: 25.0 mg/kg/injection, schedule: Q01DX005 (ip), vehicle: Klucel (hydroxypropylcellulose) (HPC) 96 % of control | [6] 97 % of control | [7] 100 % of control | [8] 97 % of control

O=c1nc2oc(-c3ccccc3)cn2c(=O)n1-c1ncc(-c2ccccc2)o1
inactive: [6] 97 % of control | [7] 100 % of control | [8] 105 % of control

CCCCOC(=O)C(c1ccccc1)C1(C)Sc2ccccc2NC1=O (stereo not given)
inactive: dose: 12.5 mg/kg/injection, schedule: Q01DX001 (ip), vehicle: saline with Tween-80 95 % of control | dose: 25.0 mg/kg/injection, schedule: Q01DX001 (ip), vehicle: saline with Tween-80 96 % of control | dose: 50.0 mg/kg/injection, schedule: Q01DX001 (ip), vehicle: saline with Tween-80 98 % of control

Nc1cccc(NC=O)c1
inactive: dose: 12.5 mg/kg/injection, schedule: Q04DX003 (ip), vehicle: saline with Tween-80 100 % of control | dose: 25.0 mg/kg/injection, schedule: Q04DX003 (ip), vehicle: saline with Tween-80 110 % of control | [9] 100 % of control

CC(=O)Nc1ccc(S(=O)(=O)N/N=C/c2cccc([N+](=O)[O-])c2O)cc1
inactive: [10] 104 % of control | [11] 104 % of control | [12] 103 % of control

Cc1cnc2c(c1)CCCC2C(N)=S (stereo not given)
inactive: [13] 99 % of control | dose: 100.0 mg/kg/injection, schedule: Q01DX009 (ip), vehicle: saline 95 % of control | [14] 107 % of control

Cc1ccc(N2C(=O)C(C)SC2=S)cc1Cl (stereo not given)
inactive: dose: 12.5 mg/kg/injection, schedule: Q01DX009 (ip), vehicle: saline 100 % of control | dose: 25.0 mg/kg/injection, schedule: Q01DX009 (ip), vehicle: saline 100 % of control | [13] 101 % of control and 103 % of control | [14] 91 % of control

Cc1c(Cl)cccc1NC(=O)/C=C/C(=O)O
inactive: [1] 90 % of control | [2] 95 % of control | [15] 90 % of control

O=C1NC(c2ccccc2)(c2ccccc2)C(=O)N1CNc1ccccn1
inactive: [10] 91 % of control | [11] 89 % of control | [12] 88 % of control

CCOc1c(N=Nc2ccc([N+](=O)[O-])cc2)c(C)nn1C(=S)SC
inactive: dose: 1.87 mg/kg/injection, schedule: Q01DX005 (ip), vehicle: Klucel (hydroxypropylcellulose) (HPC) 108 % of control | dose: 3.75 mg/kg/injection, schedule: Q01DX005 (ip), vehicle: Klucel (hydroxypropylcellulose) (HPC) 105 % of control | dose: 7.5 mg/kg/injection, schedule: Q01DX005 (ip), vehicle: Klucel (hydroxypropylcellulose) (HPC) 105 % of control and 89 % of control | dose: 15.0 mg/kg/injection, schedule: Q01DX005 (ip), vehicle: Klucel (hydroxypropylcellulose) (HPC) 97 % of control | [16] 90 % of control | dose: 240.0 mg/kg/injection, schedule: Q01DX005 (ip), vehicle: Klucel (hydroxypropylcellulose) (HPC) 87 % of control

CCOC(=O)CCC(NC(=O)c1ccc(I)cc1)C(=O)OCC (stereo not given)
inactive: [17] 100 % of control | [18] 93 % of control | dose: 200.0 mg/kg/injection, schedule: Q01DX009 (ip), vehicle: Klucel (hydroxypropylcellulose) (HPC) 102 % of control

O=C(O)CNC(=O)C(CSCc1ccccc1)NC(=O)OCc1ccccc1 (stereo not given)
inactive: [6] 103 % of control | [19] 101 % of control | [7] 102 % of control | dose: 100.0 mg/kg/injection, schedule: Q01DX009 (ip), vehicle: saline with Tween-80 99 % of control | [8] 100 % of control | dose: 200.0 mg/kg/injection, schedule: Q01DX009 (ip), vehicle: saline with Tween-80 99 % of control

O=C(Nc1cccc2ccccc12)OCC1CC1
inactive: [9] 98 % of control | [1] 102 % of control | [2] 100 % of control | [15] 100 % of control

COc1ccc(C(=O)CC(C(=O)O)c2ccc(OC)cc2)cc1 (stereo not given)
inactive: [1] 102 % of control | [2] 94 % of control | [15] 99 % of control

Cc1c2oc3c(C)ccc(C(=O)NCCN4CCCCC4)c3nc-2c(C(=O)NCCN2CCCCC2)c(N)c1=O
inactive: dose: 12.5 mg/kg/injection, schedule: Q01DX009 (ip), vehicle: Klucel (hydroxypropylcellulose) (HPC) 98 % of control | dose: 25.0 mg/kg/injection, schedule: Q01DX009 (ip), vehicle: Klucel (hydroxypropylcellulose) (HPC) 117 % of control | [17] 115 % of control | [18] 110 % of control

CC1=NN(c2ccc(S(=O)(=O)O)cc2)C(=O)C1N=Nc1ccc(-c2ccc(N=Nc3ccc(O)c(C(=O)O)c3)c(C)c2)cc1C (stereo not given)
inactive: [20] 100 % of control and 91 % of control | [21] 99 % of control and 106 % of control and 113 % of control | [22] 100 % of control and 120 % of control and 91 % of control

Nc1ncnc2c1nc(N)n2C1OC(CO)C(O)C1O (stereo not given)
inactive: dose: 6.0 mg/kg/injection, schedule: Q01DX005 (ip), vehicle: saline 122 % of control | dose: 25.0 mg/kg/injection, schedule: Q01DX005 (ip), vehicle: saline 119 % of control

O=S(=O)(CCl)OCCCCOS(=O)(=O)CCl
active: dose: 150.0 mg/kg/injection, schedule: Q01DX009 (ip), vehicle: saline 150 % of control
inactive: dose: 25.0 mg/kg/injection, schedule: Q04DX003 (ip), vehicle: saline sonified 109 % of control | dose: 50.0 mg/kg/injection, schedule: Q04DX003 (ip), vehicle: saline sonified 104 % of control | dose: 66.0 mg/kg/injection, schedule: Q01DX009 (ip), vehicle: saline 120 % of control | dose: 100.0 mg/kg/injection, schedule: Q04DX003 (ip), vehicle: saline sonified 118 % of control

CN(C)c1ccc(C(C#N)C(C#N)c2ccccc2)cc1 (stereo not given)
inactive: [20] 94 % of control | [21] 94 % of control | [22] 103 % of control | [19] 100 % of control

CN=C(NCCSCc1ccc2ccccc2n1)NS(=O)(=O)c1ccccc1
inactive: [3] 106 % of control | [4] 106 % of control | [5] 100 % of control

Clc1ccccc1C=NCC1CCC(CN=Cc2ccccc2Cl)CC1 (stereo not given)
inactive: [20] 99 % of control | [21] 101 % of control | [22] 100 % of control | [19] 116 % of control

C=COC(=O)C(NC(=O)OCc1ccccc1)c1ccccc1 (stereo not given)
inactive: [23] 102 % of control | [24] 101 % of control | [25] 95 % of control

O=C1NC(=O)C2(OC3c4ccccc4C=CN3C3=C2C(=O)CC3)C(=O)N1 (stereo not given)
inactive: [23] 97 % of control | [24] 91 % of control | [25] 91 % of control

CC(C)CC1N=C(NN=C2CCCCC2)SP1(=O)NNc1ncccn1 (stereo not given)
inactive: [16] 94 % of control | dose: 120.0 mg/kg/injection, schedule: Q01DX005 (ip), vehicle: Klucel (hydroxypropylcellulose) (HPC) 97 % of control

O=C1NC(=O)C2=C1CCCC2Br (stereo not given)
inactive: dose: 3.13 mg/kg/injection, schedule: Q01DX009 (ip), vehicle: distilled water + Tween-80 99 % of control | dose: 6.25 mg/kg/injection, schedule: Q01DX009 (ip), vehicle: distilled water + Tween-80 92 % of control | dose: 12.5 mg/kg/injection, schedule: Q01DX009 (ip), vehicle: distilled water + Tween-80 117 % of control
